In ChEMBL document CHEMBL5126646, “Synthesis and Biological Evaluation of Aurachin D Analogues as Inhibitors of Mycobacterium tuberculosis Cytochrome bd Oxidase” (ACS Med Chem Lett, 2022):
In brackets after ≈: the same amount, converted by molar mass.

Legend:
[1] = system: Mycobacterium tuberculosis; experiment: Antitubercular activity against Mycobacterium tuberculosis mc26230 incubated for 7 days; type: functional; conditions: mc26230, 168 h, time 7 day
[2] = (§1) Inhibition of Mycobacterium tuberculosis cytochrome bd oxidase over expressed in inverted membrane vesicles of Mycobacterium smegmatis deltacydAB assessed as reduction in malate-induced increase in oxygen consumption rate measured after 60 secs in presence of cytochrome bcc-aa3 complex inhibitor TB47 by fluorespirometry; type: cell membranes, Membrane vesicle
[3] = system: Mycolicibacterium smegmatis; experiment: Growth inhibition of Mycobacterium smegmatis mc2155 harboring deltaqcr mutant incubated for 48 hrs under shaking condition; type: functional
[4] = Growth inhibition of nonpathogenic Mycobacterium smegmatis mc2155 incubated for 48 hrs under shaking condition; conditions: mycolicibacterium smegmatis
[5] = as §1, with “smegmatis mc2155” for “smegmatis”, “at 120” for “after 60”; type: cell membranes, Membrane vesicle

With `Cc1[nH]c2ccccc2c(=O)c1Cc1ccccc1` as the compound, how does the MIC [1] read?
Its MIC is 32 µM (≈ 7.98 µg/mL).

And the IC50 [2]?
Its IC50 is 4.8 µM.

What about the MIC [3] of the same compound?
Its MIC is over 512 µM.

What about the MIC [4] of the same compound?
The MIC was over 512 µM.

With `CC(C)=CCC/C(C)=C/Cc1c(C)[nH]c2ccc(N)cc2c1=O` as the compound, how does the MIC [1] read?
Its MIC is over 512 µM.

And the IC50 [2]?
The IC50 was 33 µM.

And the MIC [3]?
Its MIC is over 512 µM.

What about the MIC [4] of the same compound?
The MIC was over 512 µM.

What does the source list for `COc1cccc2c(=O)c(C/C=C(\C)CC/C=C(\C)CCC=C(C)C)c(C)[nH]c12`?
MIC [1]: 64 µM (≈ 25.2 µg/mL); IC50 [2]: 1.3 µM; MIC [3]: > 512 µM; MIC [4]: > 512 µM

For `CC(C)=CCC/C(C)=C/CC/C(C)=C/Cc1c(C)[nH]c2ccc([N+](=O)[O-])cc2c1=O`, which MIC [1] is on record?
Its MIC is over 512 µM.

And the IC50 [2]?
The IC50 was 1.8 µM.

And the MIC [3]?
The MIC was over 512 µM.

What about the MIC [4] of the same compound?
The MIC was over 512 µM.

What does the source list for `CC(C)=CCC/C(C)=C/CC/C(C)=C/Cc1c(C)[nH]c2ccc(N=[N+]=[N-])cc2c1=O`?
MIC [1]: 512 µM (≈ 207 µg/mL); IC50 [2]: 4.7 µM; MIC [3]: > 512 µM; MIC [4]: > 512 µM

With `CC(C)=CCC/C(C)=C/CC/C(C)=C/Cc1c(C)[nH]c2cccc(O)c2c1=O` as the compound, how does the MIC [1] read?
Its MIC is 256 µM (≈ 97.2 µg/mL).

And the IC50 [2]?
Its IC50 is 0.61 µM.

What about the MIC [3] of the same compound?
The MIC was over 512 µM.

And the MIC [4]?
Its MIC is over 512 µM.

Which MIC [1] does the source give for `CC(C)=CCC/C(C)=C/CC/C(C)=C/Cc1c(C)[nH]c2cc(C(F)(F)F)ccc2c1=O` here?
Its MIC is over 512 µM.

And the IC50 [2]?
The IC50 was over 1000 µM.

And the MIC [3]?
The MIC was over 512 µM.

What about the MIC [4] of the same compound?
Its MIC is over 512 µM.

Which MIC [1] does the source give for `CC(C)=CCC/C(C)=C/CC/C(C)=C/Cc1c(C)[nH]c2cc(N)ccc2c1=O` here?
Its MIC is over 512 µM.

And the IC50 [2]?
Its IC50 is 1.8 µM.

What about the MIC [3] of the same compound?
Its MIC is over 512 µM.

And the MIC [4]?
The MIC was over 512 µM.

For `COc1ccc2c(=O)c(C/C=C(\C)CC/C=C(\C)CCC=C(C)C)c(C)[nH]c2c1`, which MIC [1] is on record?
The MIC was over 512 µM.

What about the IC50 [2] of the same compound?
Its IC50 is 0.13 µM.

And the MIC [3]?
The MIC was over 512 µM.

What about the MIC [4] of the same compound?
Its MIC is over 512 µM.

Which results are given for `CC(C)=CCC/C(C)=C/CC/C(C)=C/Cc1c(C)[nH]c2cc(C)ccc2c1=O`?
MIC [1]: > 512 µM; IC50 [2]: 31 µM; MIC [3]: > 512 µM; MIC [4]: > 512 µM

For `CC(C)=CCC/C(C)=C/CC/C(C)=C/Cc1c(C)[nH]c2ccc(F)cc2c1=O`, which MIC [1] is on record?
Its MIC is 8 µM (≈ 3.05 µg/mL).

What about the IC50 [2] of the same compound?
Its IC50 is 0.25 µM.

And the MIC [3]?
The MIC was over 512 µM.

And the MIC [4]?
The MIC was over 512 µM.

For `COc1cccc2[nH]c(C)c(C/C=C(\C)CC/C=C(\C)CCC=C(C)C)c(=O)c12`, which MIC [1] is on record?
Its MIC is 32 µM (≈ 12.6 µg/mL).

What about the IC50 [2] of the same compound?
The IC50 was 0.36 µM.

What about the MIC [3] of the same compound?
Its MIC is over 512 µM.

And the MIC [4]?
Its MIC is over 512 µM.

With `CC(C)=CCC[C@@H](C)CCc1c(C)[nH]c2ccccc2c1=O` as the compound, how does the MIC [1] read?
Its MIC is 4 µM (≈ 1.19 µg/mL).

What about the IC50 [2] of the same compound?
Its IC50 is 0.35 µM.

What about the MIC [3] of the same compound?
The MIC was over 512 µM.

And the MIC [4]?
Its MIC is over 512 µM.

With `CC(C)=CCC/C(C)=C/CC/C(C)=C/Cc1c(C)[nH]c2ccc(O)cc2c1=O` as the compound, how does the MIC [1] read?
The MIC was 256 µM (≈ 97.2 µg/mL).

What about the IC50 [2] of the same compound?
Its IC50 is 0.59 µM.

What about the MIC [3] of the same compound?
The MIC was over 512 µM.

And the MIC [4]?
The MIC was over 512 µM.

Which results are given for `CC(C)=CCC[C@@H](C)CCc1c(C)[nH]c2cc(N)ccc2c1=O`?
MIC [1]: 512 µM (≈ 160 µg/mL); IC50 [2]: 52 µM; MIC [3]: > 512 µM; MIC [4]: > 512 µM

Which MIC [1] does the source give for `CC(C)=CCC/C(C)=C/CC/C(C)=C/Cc1c(C)[nH]c2ccc(N)cc2c1=O` here?
The MIC was over 512 µM.

What about the IC50 [2] of the same compound?
Its IC50 is 5 µM.

What about the MIC [3] of the same compound?
The MIC was over 512 µM.

And the MIC [4]?
Its MIC is over 512 µM.

For `CC(C)=CCC/C(C)=C/CC/C(C)=C/Cc1c(C)[nH]c2ccc(Cl)cc2c1=O`, which MIC [1] is on record?
Its MIC is over 512 µM.

What about the IC50 [2] of the same compound?
Its IC50 is 9 µM.

What about the MIC [3] of the same compound?
The MIC was over 512 µM.

What about the MIC [4] of the same compound?
The MIC was over 512 µM.

Which MIC [1] does the source give for `CC(C)=CCC/C(C)=C/CC/C(C)=C/Cc1c(C)[nH]c2cc(F)ccc2c1=O` here?
The MIC was 256 µM (≈ 97.7 µg/mL).

And the IC50 [2]?
Its IC50 is 0.37 µM.

And the MIC [3]?
The MIC was over 512 µM.

What about the MIC [4] of the same compound?
Its MIC is over 512 µM.

For `CC(C)=CCC/C(C)=C/CC/C(C)=C/Cc1c(C)[nH]c2cc(Cl)cc(Cl)c2c1=O`, which MIC [1] is on record?
Its MIC is over 512 µM.

And the IC50 [2]?
The IC50 was 4.6 µM.

And the MIC [3]?
The MIC was over 512 µM.

What about the MIC [4] of the same compound?
The MIC was over 512 µM.

Which MIC [1] does the source give for `COc1ccc2[nH]c(C)c(C/C=C(\C)CC/C=C(\C)CCC=C(C)C)c(=O)c2c1` here?
Its MIC is 256 µM (≈ 101 µg/mL).

What about the IC50 [2] of the same compound?
Its IC50 is 0.67 µM.

What about the MIC [3] of the same compound?
The MIC was over 512 µM.

And the MIC [4]?
Its MIC is over 512 µM.

With `CC(C)=CCC/C(C)=C/CC/C(C)=C/Cc1c(C)[nH]c2cc(Cl)ccc2c1=O` as the compound, how does the MIC [1] read?
Its MIC is over 512 µM.

What about the IC50 [2] of the same compound?
The IC50 was over 1000 µM.

And the MIC [3]?
Its MIC is over 512 µM.

And the MIC [4]?
The MIC was over 512 µM.

With `CC(C)=CCC/C(C)=C/Cc1c(C)[nH]c2ccccc2c1=O` as the compound, how does the MIC [1] read?
The MIC was over 512 µM.

What about the IC50 [2] of the same compound?
Its IC50 is 1.1 µM.

What about the MIC [3] of the same compound?
Its MIC is over 512 µM.

And the MIC [4]?
The MIC was over 512 µM.

Which MIC [1] does the source give for `CC(C)=CCc1c(C)[nH]c2ccccc2c1=O` here?
The MIC was 32 µM (≈ 7.27 µg/mL).

What about the IC50 [2] of the same compound?
Its IC50 is 5.8 µM.

And the MIC [3]?
The MIC was over 512 µM.

And the MIC [4]?
Its MIC is over 512 µM.

Which results are given for `CC(C)=CCC/C(C)=C/CC/C(C)=C/Cc1c(C)[nH]c2cccc(F)c2c1=O`?
MIC [1]: 256 µM (≈ 97.7 µg/mL); IC50 [2]: 7.5 µM; MIC [3]: > 512 µM; MIC [4]: > 512 µM

With `CC(C)=CCC/C(C)=C/CC/C(C)=C/Cc1c(C)[nH]c2ccccc2c1=O` [AURACHIN D] as the compound, how does the MIC [1] read?
Its MIC is 8 µM (≈ 2.91 µg/mL).

What about the IC50 [5] of the same compound?
The IC50 was 0.15 µM.

What about the MIC [3] of the same compound?
The MIC was over 512 µM.

And the MIC [4]?
The MIC was over 512 µM.
